Assay results taken from patent publication US20220306617A1, “SUBSTITUTED 1,3-PHENYL HETEROARYL DERIVATIVES AND THEIR USE IN THE TREATMENT OF DISEASE” (NOVARTIS AG, priority 2019, published 2022).
Where a name gives a salt, the structure may show the parent alone.

Target: T1, abc isoform of human TMEM16A channel expressed in CHO cells (Homo sapiens, UniProt Q5XXA6, DEL476-501)
T1 construct: expressed in transfected cells; host or cells: CHO cells, doxycycline-inducible expression under Blasticidin/Zeocin selection
T1 sequence (Q5XXA6 with tags, fused parts or gaps isoform Q5XXA6-5 DEL539-564): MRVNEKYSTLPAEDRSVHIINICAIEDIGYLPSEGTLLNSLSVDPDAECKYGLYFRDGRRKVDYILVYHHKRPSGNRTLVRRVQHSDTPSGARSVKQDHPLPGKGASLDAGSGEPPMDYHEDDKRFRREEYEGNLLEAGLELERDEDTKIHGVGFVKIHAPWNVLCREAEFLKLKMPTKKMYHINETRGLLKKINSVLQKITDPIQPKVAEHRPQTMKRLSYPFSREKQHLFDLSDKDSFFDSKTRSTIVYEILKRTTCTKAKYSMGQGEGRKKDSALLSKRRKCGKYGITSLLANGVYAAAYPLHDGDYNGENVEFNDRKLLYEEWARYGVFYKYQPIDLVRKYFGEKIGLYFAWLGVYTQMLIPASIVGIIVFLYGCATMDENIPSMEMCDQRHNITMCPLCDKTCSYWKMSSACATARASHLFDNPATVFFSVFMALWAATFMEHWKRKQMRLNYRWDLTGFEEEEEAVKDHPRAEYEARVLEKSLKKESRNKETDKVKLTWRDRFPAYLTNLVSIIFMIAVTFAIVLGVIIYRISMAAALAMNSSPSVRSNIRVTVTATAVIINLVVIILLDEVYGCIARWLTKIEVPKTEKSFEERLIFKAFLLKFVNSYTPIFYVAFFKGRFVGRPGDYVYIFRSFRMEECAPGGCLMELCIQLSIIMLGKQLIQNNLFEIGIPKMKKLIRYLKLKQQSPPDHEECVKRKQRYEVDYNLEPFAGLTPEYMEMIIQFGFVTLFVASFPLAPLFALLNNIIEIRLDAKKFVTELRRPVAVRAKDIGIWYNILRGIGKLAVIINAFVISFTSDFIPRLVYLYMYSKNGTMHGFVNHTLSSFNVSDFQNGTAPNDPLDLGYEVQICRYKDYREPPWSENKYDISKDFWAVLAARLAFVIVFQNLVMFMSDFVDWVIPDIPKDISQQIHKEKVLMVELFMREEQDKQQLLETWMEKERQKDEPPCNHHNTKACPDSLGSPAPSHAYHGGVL
Assay: Automated patch clamping (QPatch) assay to measure TMEM16A activity in whole-cell
Assay type: cell-based
Conditions: for EC50: CHO cells expressing human TMEM16A (abc), whole-cell automated patch clamp, Hill fit, read-out: TMEM16A QPATCH assay EC50 V3 EC50; for Emax: CHO, maximum current at highest dose relative to reference potentiator at maximal concentration (upper limit) and vehicle (lower limit), read-out: TMEM16A QPATCH assay EC50 V3 Assay Window (% TMEM16A max activation)
Method: Automated Patch Clamping Assay to Measure TMEM16A Activity in Whole-Cell
Chinese hamster ovary cells (CHO) cells expressing abc isoform of human TMEM16A channel (Ref) were grown in vented cell-culture flasks (Corning) containing cell culture medium (1×F-12 Ham, 10% FBS, 1% Penicillin-streptomycin, 5 μg/mL Blasticidin S HCl, 400 μg/mL Zeocin), maintained at 37° C. in an incubator with 5% C02, 95% 02 and 100% humidity. The cells were passaged every 2-3 days at 80-90% confluence by aspirating the cell culture medium, washing twice with 10 mL D-PBS then incubating with 4 mL Trypsin-EDTA for no longer than 5 minutes. Trypsin was neutralized with the addition of 32 mL growth medium to the cell suspension, the cells were counted using a viable-cell counter (Vi-CELL; Beckmann-Coulter) and new flasks were seeded at a cell density of 0.01, 0.02, or 0.05×10^6 cells per cm2 for 3, 2, or 1 day(s) growth, respectively. Cell suspension was diluted in the new 175 cm2 flask with 50 mL of growth medium. Doxycycline was used to induce the expression of TMEM16A channel protein and was added directly to the culture flask 18-24 hours in advance of assay at a final concentration of 1 μg/mL. Induced cells were washed with D-PBS and detached from their culture flasks by adding 10 mL of Detachin and incubating for 10 minutes. Once detached, 5 mL of QPatch assay medium (1×CHO-S-SFM II (Sigma), 25 mM HEPES) was added and the resultant cell suspension counted using the Vi-CELL viable cell counter. The optimal cell density for this QPatch assay is 2-5×1 06 cells/mL; re-adjusted as necessary with QPatch assay medium.
The ion channel activity of TMEM16A (abc) expressed in CHO cells was assed using an automated patch clamp system (Qpatch, Sophion). These systems use planar patch-clamp technology to enable high-resistance, continuous whole-cell recordings from multiple cells in parallel, whilst maintaining each individual cell as an isolated experiment. First, each well was primed with intracellular and extracellular solutions described below. Cells were spun down, washed and then resuspended using extracellular solution. Intracellular solution: 130 mM N-methyl-D-glucamine, 10 mM EGTA, 20 mM CaCl2, 1 mM MgCl2, 10 mM HEPES 10, 10 mM BAPTA, 99 mM Sucrose, 2 mM Mg-ATP, pH 7.3, 320 mOsm Extracellular solution: 130 mM N-methyl-D-glucamine, 10 mM EGTA, 20 mM CaCl2, 1 mM MgCl2, 10 mM HEPES 10, 10 mM BAPTA, 99 mM Sucrose, 2 mM Mg-ATP, pH 7.3, 320 mOsm. Resuspended cells were then added to each well and suction was applied from the intracellular side in order to position a cell on the chip aperture, form a high resistance (GO) seal and achieve a whole-cell recording configuration. Following successful whole cell access, cell membranes were maintained at a voltage of −70 mV until the voltage protocol is applied. From this voltage, membranes were depolarized to +70 mV for 1500 ms, and then hyperpolarized to […] before being depolarized again from −90 to +70 mV in a continuous ramp waveform. At the end of the ramp, the membrane voltage is stepped back to −70 mV until the next waveform was applied. Compounds were dissolved at 10 mM in 100% DMSO and then diluted into extracellular solution (0.3% DMSO final) to the desired final concentration. The assay lower and upper limit were defined as follow, average amplitude (nA) of the last 3 sweeps in the vehicle addition of each cell was considered the basal current (lower limit); the average maximum current response in 3 cells for a reference potentiator at maximal concentration (upper limit). Current values for each compound concentration were then plotted against […]. EC50 curves are fitted to concentration-response data using curve-fitting functions (Hill fit) within the QPatch software. Curve fitting is constrained between the lowest concentration (vehicle-only addition) and the highest current value measured within the concentration range. […]

With `CCOC(=O)[C@@H](NC(=O)c1cc(-c2cccc(-c3ncc(C(=O)N[C@H](C(=O)OCC)C(C)C)o3)c2)[nH]n1)C(C)C` [Example 2.2, (S)-Ethyl 2-(2-(3-(3-(((S)-1-Ethoxy-3-Methyl-1-Oxobutan-2-Yl)Carbamoyl)-1 H-Pyrazol-5-Yl)Phenyl)Oxazole-5-Carboxamido)-3-Methylbutanoate] the EC50 was 32 nM and the Emax was 112%.
`CCOC(=O)[C@@H](NC(=O)c1cc(-c2cccc(-c3ncc(C(=O)NC(CC)CC)o3)c2)nn1CCN1CCOCC1)C(C)C` [Example 7.0, (S)-Ethyl 3-Methyl-2-(1-(2-Morpholinoethyl)-3-(3-(5-(Pentan-3-Ylcarbamoyl)Oxazol-2-Yl)Phenyl)-1H-Pyrazole-5-Carboxamido)Butanoate] showed an EC50 of 440 nM and an Emax of 175%.
In the case of `CCC(CC)NC(=O)c1cnc(-c2cccc(-c3nc(C(=O)NC(CC)CC)n(CCN4Cc5ccccc5C4)n3)c2)o1` [Example 15.7, 2-(3-(1-(2-(Isoindolin-2-Yl)Ethyl)-5-(Pentan-3-Ylcarbamoyl)-1H-1,2,4-Triazol-3-Yl)Phenyl)-N-(Pentan-3-Yl)Oxazole-5-Carboxamide], the EC50 is reported as 320 nM and the Emax is reported as 103%.
For `CCC(CC)NC(=O)c1cnc(-c2cccc(-c3cn(CC(O)C(F)(F)F)c(C(=O)N[C@@H](C)C4CC4)n3)c2)o1` (stereo partly drawn) [Example 17.0, 2-(3-(2-(((S)-1-Cyclopropylethyl)Carbamoyl)-1-(3,3,3-Trifluoro-2-Hydroxypropyl)-1H-Imidazol-4-Yl)Phenyl)-N-(Pentan-3-Yl)Oxazole-5-Carboxamide], the EC50 was 790 nM and the Emax was 186%.
Molecule `CCC(CC)NC(=O)c1cnc(-c2cccc(-c3cc(C(=O)N[C@@H](C)CC)n[nH]3)c2)o1` [Example 3.24, (S)-2-(3-(3-(Sec-Butylcarbamoyl)-1H-Pyrazol-5-Yl)Phenyl)-N-(Pentan-3-Yl)Oxazole-5-Carboxamide] has an EC50 of 40 nM and an Emax of 76%.
Work on `C[C@H](NC(=O)c1cc(-c2cccc(-c3ncc(C(=O)N[C@H](C)C4CC4)o3)c2)[nH]n1)C1CC1` [Example 1.8, N-((R)-1-Cyclopropylethyl)-2-(3-(3-(((S)-1-Cyclopropylethyl)Carbamoyl)-1H-Pyrazol-5-Yl)Phenyl)Oxazole-5-Carboxamide] yielded an EC50 of 170 nM and an Emax of 54%.
In the case of `O=C(NC(C1CC1)C1CC1)c1nnc(-c2cccc(-c3ncc(C(=O)NC(C4CC4)C4CC4)o3)c2)[nH]1` [Example 12.8, N-(Dicyclopropylmethyl)-2-(3-(5-((Dicyclopropylmethyl)Carbamoyl)-4H-1,2,4-Triazol-3-Yl)Phenyl)Oxazole-5-Carboxamide], the EC50 is reported as 20 nM and the Emax is reported as 119%.
`COC(=O)[C@@H](NC(=O)c1cnc(-c2cccc(-c3cc(C(=O)N[C@@H](C)C4CC4)n(CC(O)C(F)(F)F)n3)c2)o1)C(C)C` (single isomer, unassigned) [8.1 (i)] showed an EC50 of 10 nM and an Emax of 135%.
Molecule `CCC(CC)NC(=O)c1cc(-c2cccc(-c3ncc(C(=O)NC(CC)C(C)C)o3)c2)[nH]n1` (centres unmarked) [Example 1.11, N-(2-Methylpentan-3-Yl)-2-(3-(3-(Pentan-3-Ylcarbamoyl)-1H-Pyrazol-5-yl)Phenyl)Oxazole-5-Carboxamide] has an EC50 of 270 nM and an Emax of 165%.
`C[C@H](NC(=O)c1nnc(-c2cccc(-c3ncc(C(=O)N[C@H](C)C4CC4)o3)c2)[nH]1)C1CC1` [Example 12.1, N-((R)-1-Cyclopropylethyl)-2-(3-(5-(((S)-1-Cyclopropylethyl)Carbamoyl)-4H-1,2,4-Triazol-3-Yl)Phenyl)Oxazole-5-Carboxamide] was tested, and the EC50 was 270 nM and the Emax was 80%.
`CCC(CC)NC(=O)c1cc(-c2cccc(-c3ncc(C(=O)N[C@H](C(=O)OC)c4ccccc4)o3)c2)[nH]n1` [Example 1.15, (S)-Methyl 2-(2-(3-(3-(Pentan-3-Ylcarbamoyl)-1H-Pyrazol-5-yl)Phenyl)Oxazole-5-Carboxamido)-2-Phenylacetate] showed an EC50 of 410 nM and an Emax of 100%.
With `CCC(CC)NC(=O)c1cnc(-c2cccc(-c3cc(C(=O)N[C@@H](CC(C)C)C(=O)OC)n[nH]3)c2)o1` [Example 3.27, (S)-Methyl 4-Methyl-2-(5-(3-(5-(Pentan-3-Ylcarbamoyl)Oxazol-2-Yl)Phenyl)-1H-Pyrazole-3-Carboxamido)Pentanoate] the EC50 was 10 nM and the Emax was 87%.
For `CCC(CC)NC(=O)c1cnc(-c2cccc(-c3cc(C(=O)N4CCCC4C(C)C)n[nH]3)c2)o1` (centres unmarked) [Example 3.31, 2-(3-(3-(2-Isopropylpyrrolidine-1-Carbonyl)-1H-Pyrazol-5-Yl)Phenyl)-N-(Pentan-3-Yl)Oxazole-5-Carboxamide], the EC50 was 180 nM and the Emax was 87%.
In the case of `CCC(CC)NC(=O)c1cnc(-c2cccc(-c3cc(C(=O)N4CCC(C(=O)OC(C)(C)C)C4)n[nH]3)c2)o1` (centres unmarked) [Example 3.62, Tert-Butyl 1-(5-(3-(5-(Pentan-3-Ylcarbamoyl)Oxazol-2-Yl)Phenyl)-1H-Pyrazole-3-Carbonyl)Pyrrolidine-3-Carboxylate Trifluoroacetate], the EC50 is reported as 960 nM and the Emax is reported as 70%.
`CCC(CC)NC(=O)c1cnc(-c2cccc(-c3cc(C(=O)Nc4cccc(OC(C)C)c4)n[nH]3)c2)o1` [Example 3.21, 2-(3-(3-((3-Isopropoxyphenyl)Carbamoyl)-1H-Pyrazol-5-Yl)Phenyl)-N-(Pentan-3-Yl)Oxazole-5-Carboxamide] gave an EC50 of 190 nM and an Emax of 74%.
`CCC(CC)NC(=O)c1cnc(-c2cccc(-c3cc(C(=O)NCC4(N5CCOCC5)CCCCC4)n[nH]3)c2)o1` [Example 3.67, 2-(3-(3-(((1-Morpholinocyclohexyl)Methyl)Carbamoyl)-1H-Pyrazol-5-Yl)Phenyl)-N-(Pentan-3-Yl)Oxazole-5-Carboxamide Trifluoroacetate] gave an EC50 of 790 nM and an Emax of 68%.
